Like-named read-outs stand apart in the source and are kept apart here. Marks after values point to notes of the source that are not given here. Where no end group is shown, it is not given here.

This is an account of results in patent US6638531B1, “Antimicrobial peptides” (priority 1998, dated 2003).

Format in all cases: cell-based
Data set [1] relates to bacteria from cultured plaque. Nature of the data set: Antimicrobial activity on oral bacteria. The following applies: po. From the text:
(§1) In order to determine whether the peptides according to the invention are also active against bacteria such as are encountered in the mouth, bacteria were collected from saliva and plaque. Saliva was shaken on a vortex mixer and centrifuged.

Data set [2] concerns bacteria collected from saliva. The data set can be described thus: Antimicrobial activity on oral bacteria. Conditions: po.
Text: as §1

Data set [3] concerns bacteria collected from plaque. Nature of the data set: Antimicrobial activity on oral bacteria. Conditions: po.
Text: as §1

Data set [4] has as its system bacteria from disrupted plaque. Nature of the data set: Antimicrobial activity on oral bacteria. The following applies: po.
Text: as §1

Data set [5] relates to artificial oral biofilm of seven oral aerobic and anaerobic types of bacteria. Nature of the data set: Antibacterial activity in an artificial oral biofilm. Conditions: for inhibition at 35 ppm / inhibition at 200 ppm: po; for % reduction in viability counts, total Gram-negative average (s.d.) / % reduction in viability counts, total aerobic average / % reduction in viability counts, total anaerobic average: 0.5 h, pH 7. The procedure: An artificial oral biofilm was made by placing hydroxyapatite discs for five days in a continuous culture system of seven oral aerobic and anaerobic types of bacteria (Streptococcus mutans, Streptococcus sanpuis, Streptococcus salivarius, Actinomyces naeslundii, Veillonella parvula, Prevotella intermedia and Fusobacterium nucleatum) The discs with the biofilm formed thereon were subsequently incubated for half an hour with different concentrations of peptide in 10 mM potassium phosphate buffer, pH 7.0. The biofilm was then sonicated from the discs, diluted in PBS and plated out on semi-selective agar plates. The total […] were counted (Streptococci+Actinomyces) on aerobic incubated blood agar plates, the total Gram-negative counts (Veilonella, Fusobacterium and Prevotella) on vancomycin-containing plates and the total counts on the anaerobic incubated blood agar.

Data set [6] concerns Streptococcus mutans. The data set can be described thus: Inhibition of lactic acid production. The following applies: S. mutans; 1 hour in 10 mM PPB with glucose. The protocol: (§2) All peptides according to the invention were tested for their capacity to inhibit the lactic acid production of the bacteria Streptococcus sanguis, Streptococcus mutans, Streptococcus salivarius and Lactobacillus rhamnosus. The formation of lactic acid is a measure for the metabolic activity. For this purpose cultures of bacteria cells were incubated for 1 hour in 10 mM PPB with 0.5 glucose and different concentrations of the peptides. The formation of lactic acid was monitored by means of spectrophotometry.

Data set [7] relates to Streptococcus salivarius. Nature of the data set: Inhibition of lactic acid production. The following applies: S. salivarius; 1 hour in 10 mM PPB with glucose. The protocol:
as §2

The test system of data set [8] is Lactobacillus rhamnosus. The data set can be described thus: Inhibition of lactic acid production. Conditions: L. rhamnosus; 1 hour in 10 mM PPB with glucose. The procedure:
as §2

Data set [9] deals with Streptococcus sanguis. The data set can be described thus: Inhibition of lactic acid production. The following applies: S. sanguis; 1 hour in 10 mM PPB with glucose. The procedure: as §2
Data set [10] relates to Candida albicans. Nature of the data set: Growth inhibition on agar with spotted peptide. On the set-up: key: “+” designates full growth inhibition; “+/−” designates partial inhibition; “−” signifies no inhibition. Conditions: C. albicans on agar, 10 μg peptide spotted. The protocol: (§3) The growth of the yeast Candida albicans, Torulopsis glabrata and meticillin-resistant Staphylococcus aureus (MRSA) was tested by growing them on agar on which 10 μg of each of the peptides according to the invention was spotted. […] “+” designates full growth inhibition, “+/−” designates partial inhibition and “−” signifies no inhibition.

The test system of data set [11] is meticillin-resistant Staphylococcus aureus (MRSA). The data set can be described thus: Growth inhibition on agar with spotted peptide. Also noted: key: “+” designates full growth inhibition; “+/−” designates partial inhibition; “−” signifies no inhibition. The following applies: 10 μg peptide spotted. The protocol: as §3
Data set [12] has as its system Torulopsis glabrata. The data set can be described thus: Growth inhibition on agar with spotted peptide. Also noted: key: “+” designates full growth inhibition; “+/−” designates partial inhibition; “−” signifies no inhibition. Conditions: T. glabrata on agar, 10 μg peptide spotted. The protocol:
as §3

The mark [13] stands for this setting: read-out: % reduction in viability counts, total Gram-negative average.
[14] abbreviates: read-out: % reduction in viability counts, total aerobic average.
[15] abbreviates: read-out: % reduction in viability counts, total anaerobic average.
[16] abbreviates: read-out: % reduction in viability counts, total Gram-negative average (s.d.).

Turning to `[H]/N=C(\N/C(=N/[H])NCCCCCCNC(=N)NC(=N)Nc1ccc(Cl)cc1)Nc1ccc(Cl)cc1` [Chlorhexidine], the inhibition at 50 ppm in data set [1] (setting [13]), in data set [1] (setting [14]), in data set [1] (setting [15]), in [2] (setting [13]), in data set [2] (setting [14]) and in data set [2] (setting [15]) was above 99.9% in each case. Further, the inhibition at 50 ppm in data set [3] (setting [13]) is 99.7%; in data set [3] (setting [14]), 99.7%; in data set [3] (setting [15]), 99.7%; in data set [4] (setting [13]), above 99.9%; in data set [4] (setting [14]), 99.7%; in data set [4] (setting [15]), 99%. Further, the figures for the inhibition at 35 ppm in [5] (setting [16]), in [5] (setting [14]) and in [5] (setting [15]) were 68.3%, 39% and 38.4%, respectively. For the same compound, the inhibition at 200 ppm in [5] (setting [16]), in data set [5] (setting [14]) and in [5] (setting [15]) was 99.9% throughout.

Take “KRKFHEKHHSHRGY [dh-5, C-terminal part of histatin 5, reference compound]”: the “inhibition of lactic acid production” value in [6], in [7], in [8] and in [9] was “− (“−” signifies no inhibition of lactic acid formation at >100 μg/ml peptide)” each time. Further, the growth inhibition result in data set [10], in data set [11] and in data set [12] was “−” in each case.

In the case of “KRLFKELKFSLRKY-amide (KRLFKELKFSLRKY-NH2) [peptide 12]”, the “inhibition of lactic acid production” value in [6], in data set [7], in data set [8] and in data set [9] was “+ (“+” designates full inhibition at 4-20 μg/ml peptide)” each time. The growth inhibition entry in [10] and in data set [12] was “+” in each case.

With KRLFKELKKSLRKY [peptide 5], the “inhibition of lactic acid production” value in data set [6], in [7], in data set [8] and in data set [9] was “+ (“+” designates full inhibition at 4-20 μg/ml peptide)” throughout. Also, the growth inhibition result in data set [10] and in [12] was “+” throughout.

In the case of KRLFKELLFSLRKY [peptide 4], the “inhibition of lactic acid production” value in [6], in data set [7], in data set [8] and in data set [9] was “+ (“+” designates full inhibition at 4-20 μg/ml peptide)” in each case. The values for the growth inhibition entry in data set [10], in [11] and in data set [12] were “+”, “+/−” and “+”, respectively.

In the case of “KRLFKELLFSLRKY-amide (KRLFKELLFSLRKY-NH2) [peptide 13]”, the “inhibition of lactic acid production” value in data set [6], in [7], in [8] and in [9] was “+ (“+” designates full inhibition at 4-20 μg/ml peptide)” in each case. In addition, the growth inhibition entry in data set [10] and in data set [12] was “+” each time.

For KRLFKELLKSLRKY [peptide 6], the “inhibition of lactic acid production” value in [6], in [7], in data set [8] and in [9] was “+ (“+” designates full inhibition at 4-20 μg/ml peptide)” each time. In addition, the growth inhibition result in [10] and in data set [12] was “+” in each case.

As for “KRLFKKLKFSLRKY-OH [peptide 9, KRLFKKLKFSLRKY]”, the “inhibition of lactic acid production” value in data set [6], in [7], in data set [8] and in [9] was “+ (“+” designates full inhibition at 4-20 μg/ml peptide)” throughout. Also, the growth inhibition entry in data set [10], in data set [11] and in [12] was “+” each time. Also, the “% reduction in viability counts, total Gram-negative average (s.d.)” value is given as 51.0 (32.0)* % in data set [5] (10 μg/ml), 30.6 (104.4)* % in data set [5] (100 μg/ml), 53.3 (70.7) % in [5] (250 μg/ml) and 96.9 (0.85)* % in data set [5] (500 μg/ml). For the same compound, the “% reduction in viability counts, total aerobic average” value is listed as −67.4% in data set [5] (10 μg/ml), 78.7% in [5] (100 μg/ml), 64.8% in [5] (250 μg/ml) and 96.6% in data set [5] (500 μg/ml). For the same compound, the “% reduction in viability counts, total anaerobic average” value is −66.2% in [5] (10 μg/ml), 51.2% in data set [5] (100 μg/ml), 61.2% in data set [5] (250 μg/ml) and 93.2% in [5] (500 μg/ml).

Turning to LLLFLLKKRKKRKY [peptide 11], the “inhibition of lactic acid production” value in data set [6], in [7], in data set [8] and in [9] was “+ (“+” designates full inhibition at 4-20 μg/ml peptide)” in each case. Further, the growth inhibition entry in [10], in data set [11] and in data set [12] was “+” each time.

In the case of OOLFOELLOSLOOY [peptide 8], the “inhibition of lactic acid production” value in data set [6], in data set [7], in data set [8] and in [9] was “+ (“+” designates full inhibition at 4-20 μg/ml peptide)” in each case. Further, the growth inhibition result in [10] and in [12] was “+” throughout.

On to OOLFOELOOSLOOY [peptide 7], for which the “inhibition of lactic acid production” value in data set [6], in data set [7], in [8] and in [9] was “+ (“+” designates full inhibition at 4-20 μg/ml peptide)” throughout. Also, the growth inhibition entry in [10] and in data set [12] was “+” throughout.
